Molecules are shown by their SMILES. Where “and” joins values, the source holds several entries; their conditions need not be identical. Equal values may be shown once. Inconclusive results and toxic doses are left out.

This assay concerns P388 leukemia ip, CD2F1 mice, survival T/C. Nature of the assay: NCI In Vivo Anticancer Drug Screen. Data for tumor model P388 Leukemia (intraperitoneal) in CD2F1 (CDF1) mice. To be noted: endpoint: median survival time, higher = longer survival. Put shortly:
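Mice carrying the transplanted tumor received test compound or vehicle. Survival was recorded in each group, and the value is the treated-group measurement divided by that of the vehicle-treated control group.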

[1] abbreviates: dose: 60.0 mg/kg/injection, schedule: Q01DX005 (ip), vehicle: saline with Tween-80.
The mark [2] stands for this setting: dose: 120.0 mg/kg/injection, schedule: Q01DX005 (ip), vehicle: saline with Tween-80.
The mark [3] stands for this setting: dose: 240.0 mg/kg/injection, schedule: Q01DX005 (ip), vehicle: saline with Tween-80.
[4] abbreviates: dose: 50.0 mg/kg/injection, schedule: Q01DX005 (ip), vehicle: Klucel (hydroxypropylcellulose) (HPC).
Where [5] appears, read: dose: 100.0 mg/kg/injection, schedule: Q01DX005 (ip), vehicle: Klucel (hydroxypropylcellulose) (HPC).
[6] abbreviates: dose: 200.0 mg/kg/injection, schedule: Q01DX005 (ip), vehicle: Klucel (hydroxypropylcellulose) (HPC).
Where [7] appears, read: dose: 50.0 mg/kg/injection, schedule: Q01DX009 (ip), vehicle: saline with Tween-80.
[8] abbreviates: dose: 100.0 mg/kg/injection, schedule: Q01DX009 (ip), vehicle: saline with Tween-80.
[9] abbreviates: dose: 200.0 mg/kg/injection, schedule: Q01DX009 (ip), vehicle: saline with Tween-80.
Where [10] appears, read: dose: 100.0 mg/kg/injection, schedule: Q04DX002 (ip), vehicle: saline.
Where [11] appears, read: dose: 200.0 mg/kg/injection, schedule: Q04DX002 (ip), vehicle: saline.
The mark [12] stands for this setting: dose: 12.5 mg/kg/injection, schedule: Q01DX005 (ip), vehicle: saline with Tween-80.
[13] abbreviates: dose: 25.0 mg/kg/injection, schedule: Q01DX005 (ip), vehicle: saline with Tween-80.
The mark [14] stands for this setting: dose: 50.0 mg/kg/injection, schedule: Q01DX005 (ip), vehicle: saline with Tween-80.
Setting [15] is: dose: 50.0 mg/kg/injection, schedule: Q04DX003 (ip), vehicle: saline.
[16] abbreviates: dose: 100.0 mg/kg/injection, schedule: Q04DX003 (ip), vehicle: saline.
[17] abbreviates: dose: 50.0 mg/kg/injection, schedule: Q01DX009 (ip), vehicle: saline.
Where [18] appears, read: dose: 100.0 mg/kg/injection, schedule: Q01DX009 (ip), vehicle: saline.
Where [19] appears, read: dose: 200.0 mg/kg/injection, schedule: Q01DX009 (ip), vehicle: saline.

With `FC(F)(F)C1=C(C(F)(F)F)SP(Cl)(Cl)(c2ccccc2)S1`, the T/C runs as follows: (dose: 12.5 mg/kg/injection, schedule: Q04DX003 (ip), vehicle: saline with Tween-80) 105 % of control; (dose: 25.0 mg/kg/injection, schedule: Q04DX003 (ip), vehicle: saline with Tween-80) 105 % of control; (dose: 50.0 mg/kg/injection, schedule: Q04DX003 (ip), vehicle: saline with Tween-80) 105 % of control; (dose: 75.0 mg/kg/injection, schedule: Q04DX003 (ip), vehicle: saline with Tween-80) 101 % of control.
As to `COc1cc(OC)c(C2SCC(=O)N2c2nnc(C(F)(F)F)s2)cc1OC` (stereo not given), the T/C is 100 % of control under setting [1], 99 % of control under setting [2] and 98 % of control under setting [3].
As for `OCC1(CO)C(O)C2CCN1CC2` (stereo not given), the T/C runs as follows: (dose: 100.0 mg/kg/injection, schedule: Q04DX003 (ip), vehicle: Klucel (hydroxypropylcellulose) (HPC)) 108 % of control; (dose: 200.0 mg/kg/injection, schedule: Q04DX003 (ip), vehicle: Klucel (hydroxypropylcellulose) (HPC)) 110 % of control; (dose: 400.0 mg/kg/injection, schedule: Q04DX003 (ip), vehicle: Klucel (hydroxypropylcellulose) (HPC)) 108 % of control.
As for `COc1ccc2c(c1)CCc1cn[nH]c1-2`, the T/C reads like this: under setting [4], 93 % of control; under setting [5], 92 % of control; under setting [6], 93 % of control.
For the compound `COC(c1ccc(OCc2ccccc2)cc1)C(Br)C(=O)c1ccc(Cl)cc1Cl` (stereo not given), the T/C was 88 % of control under setting [7], 101 % of control under setting [8] and 88 % of control under setting [9].
Turning to `CC1C(C(=O)c2ccccc2)=CNc2ccccc21` (stereo not given), the T/C by setting is: (dose: 100.0 mg/kg/injection, schedule: Q01DX001 (ip), vehicle: saline with Tween-80) 91 % of control; (dose: 200.0 mg/kg/injection, schedule: Q01DX001 (ip), vehicle: saline with Tween-80) 96 % of control; (dose: 400.0 mg/kg/injection, schedule: Q01DX001 (ip), vehicle: saline with Tween-80) 92 % of control.
Take `Cn1c(=O)c2c(ncn2CCNC(c2ccccc2)c2ccccc2)n(C)c1=O`: the T/C by setting is: (dose: 50.0 mg/kg/injection, schedule: Q01DX005 (ip), vehicle: water) 107 % of control; (dose: 100.0 mg/kg/injection, schedule: Q01DX005 (ip), vehicle: water) 107 % of control; (dose: 200.0 mg/kg/injection, schedule: Q01DX005 (ip), vehicle: water) 107 % of control.
Consider `S=C1NCCNC(=S)SS1`, for which the T/C under setting [5] was 108 % of control.
`COCCOC1=C(N2CC2)C(=O)C(OCCOC)=C(N2CC2)C1=O`: the T/C is, setting by setting: (dose: 1.87 mg/kg/injection, schedule: Q01DX009 (ip), vehicle: saline) 204 % of control; (dose: 2.2 mg/kg/injection, schedule: Q04DX003 (ip), vehicle: saline) 113 % of control; (dose: 3.3 mg/kg/injection, schedule: Q04DX003 (ip), vehicle: saline) 122 % of control; (dose: 3.75 mg/kg/injection, schedule: Q01DX009 (ip), vehicle: saline) 118 % of control.
As for `[O-]c1nn(Cc2ccccc2)c2cccc[n+]12`, the T/C by setting is: under setting [10], 103 % of control; under setting [11], 99 % of control; (dose: 400.0 mg/kg/injection, schedule: Q04DX002 (ip), vehicle: saline) 100 % of control.
`O=C(O)Cc1cccc(S(=O)(=O)F)c1`: the T/C was 104 % of control under setting [1] and 100 % of control under setting [2].
Regarding `N/C(=N\Cl)C(Cl)(Cl)Cl`, the T/C by setting is: (dose: 16.5 mg/kg/injection, schedule: Q01DX009 (ip), vehicle: saline) 113 % of control; (dose: 25.0 mg/kg/injection, schedule: Q01DX009 (ip), vehicle: saline) 106 % of control; (dose: 37.5 mg/kg/injection, schedule: Q01DX009 (ip), vehicle: saline) 111 % of control.
With `CS(=O)(=O)C(CCC(=O)c1ccc([N+](=O)[O-])cc1)C(=O)c1ccccc1` (stereo not given), the T/C is, setting by setting: under setting [4], 98 % of control; under setting [5], 96 % of control; under setting [6], 104 % of control.
On to `CC(C)c1ccc(C[n+]2ccccc2/C=N/O)cc1`, for which the T/C was 100 % of control under setting [12], 95 % of control under setting [13] and 103 % of control under setting [14].
Take `Nc1ccc(C(=O)Nc2ccccc2N)cc1`: the T/C reads like this: (dose: 100.0 mg/kg/injection, schedule: Q04DX003 (ip), vehicle: saline with Tween-80) 100 % of control; (dose: 200.0 mg/kg/injection, schedule: Q04DX003 (ip), vehicle: saline with Tween-80) 99 % of control; (dose: 400.0 mg/kg/injection, schedule: Q04DX003 (ip), vehicle: saline with Tween-80) 108 % of control.
Consider `CCCCCCC(=O)/C=C/c1ccc(O)cc1`, for which the T/C is, setting by setting: under setting [7], 105 % of control; under setting [8], 105 % of control; under setting [9], 105 % of control.
As for `C1CC2CCC1CNC2`, the T/C is 104 % of control (dose: 25.0 mg/kg/injection, schedule: Q04DX003 (ip), vehicle: saline); 104 % of control under setting [15]; 95 % of control under setting [16].
As for `COc1ccc(/C=N/c2oc(-c3ccccc3)c(-c3ccccc3)c2-c2ccc(OC)cc2)cc1`, the T/C under setting [12] is 92 % of control and the T/C under setting [13] was 87 % of control.
Turning to `Nc1ccc2nc3ccc(O)cc3nc2c1`, the T/C under setting [4] was 103 % of control, the T/C under setting [5] was 108 % of control and the T/C under setting [6] is 105 % of control.
Take `CC1(c2ccccc2)CCC(=O)NC1=O` (stereo not given): the T/C under setting [1] is 102 % of control, the T/C under setting [2] is 101 % of control and the T/C under setting [3] was 106 % of control.
Consider `CCNCCn1cccc1`, for which the T/C was 91 % of control under setting [15]; 95 % of control under setting [16]; 95 % of control (dose: 200.0 mg/kg/injection, schedule: Q04DX003 (ip), vehicle: saline).
Turning to `CN(C)CCSc1sc(N)nc1-c1ccccc1`, the T/C reads like this: under setting [17], 100 % of control; under setting [18], 98 % of control; under setting [19], 114 % of control.
Take `O=C(O)c1c(CS(F)(F)(F)(F)F)cc(=O)oc1CS(F)(F)(F)(F)F`: the T/C was 106 % of control under setting [14] and 105 % of control (dose: 100.0 mg/kg/injection, schedule: Q01DX005 (ip), vehicle: saline with Tween-80).
Turning to `C[C@]12CCC(=O)C=C1CC[C@@H]1[C@@H]2C(=O)C[C@@]2(C)[C@H]1CC[C@]2(O)C(=O)C=O`, the T/C (dose: 12.5 mg/kg/injection, schedule: Q01DX009 (ip), vehicle: Klucel (hydroxypropylcellulose) (HPC)) is 111 % of control and 123 % of control; the T/C (dose: 25.0 mg/kg/injection, schedule: Q01DX009 (ip), vehicle: Klucel (hydroxypropylcellulose) (HPC)) was 119 % of control; the T/C (dose: 50.0 mg/kg/injection, schedule: Q01DX009 (ip), vehicle: Klucel (hydroxypropylcellulose) (HPC)) was 111 % of control and 120 % of control; the T/C (dose: 100.0 mg/kg/injection, schedule: Q01DX009 (ip), vehicle: Klucel (hydroxypropylcellulose) (HPC)) was 102 % of control and 113 % of control.
Turning to `Cc1ccc(NC(=O)Oc2cc(C)c(Br)c(C)c2)cc1Cl`, the T/C under setting [17] was 107 % of control, the T/C under setting [18] is 95 % of control and the T/C under setting [19] was 91 % of control.
On to `CC(NC(=O)c1cccc2c1Oc1ccccc1S2)C(=O)O` (stereo not given), for which the T/C (dose: 50.0 mg/kg/injection, schedule: Q04DX002 (ip), vehicle: saline) is 104 % of control; the T/C under setting [10] was 98 % of control; the T/C (dose: 200.0 mg/kg/injection, schedule: Q04DX002 (ip), vehicle: saline with Tween-80) was 93 % of control; the T/C under setting [11] is 99 % of control.
As to `CCN(CC)CCNc1cc(C)nc2c1ccc1c2ccc2c(NCCN(CC)CC)cc(C)nc21`, the T/C reads like this: (dose: 12.5 mg/kg/injection, schedule: Q01DX009 (ip), vehicle: water) 104 % of control; (dose: 25.0 mg/kg/injection, schedule: Q01DX009 (ip), vehicle: water) 113 % of control; (dose: 50.0 mg/kg/injection, schedule: Q01DX009 (ip), vehicle: water) 97 % of control.

These data come from PubChem BioAssay AID330 (DTP/NCI, 2004).
